Earlier results in patent US12303619B2, “Polymer implants” (Foundry Therapeutics, Inc., priority 2018, dated 2025).

- pKa: about 8.0
SMILES: CCCCN1CCCCC1C(=O)Nc1c(C)cccc1C (stereo not shown) [bupivacaine]
